The source of these data is US6528488B2, “Method for treating cystic fibrosis” (priority 1999, dated 2003).

For assay [1], the system named is P. aeruginosa. The format is cell-based. To be noted: for cfu/plate: replicate plates; for efficacy in killing P. aeruginosa: Table 3, summary in words; for activity against P. aeruginosa: Example 5, FIG. 4. How it is done: The standard procedure used for testing activity was incubation of the bacterial strain with the peptide for one hour at 37° C., followed by plating at two dilutions. Peptides having the following amino acid sequences (including P-113, as in Example 4) were tested for activity against P. aeruginosa under the conditions described above: P-113 and […] were tested against P. aeruginosa under the conditions described in the preceding examples. The dilution values were as follows: expected-2000 cfu/plate (in broth) from dilution A. A=1/2.5×dilution; plate 50 μl. B=1/2.5×dilution; plate 25 μl.

The test system of assay [2] is P. aeruginosa. The class given is cell-based. To be noted: ATCC strains and clinical CF isolates of Table 2 (assays D and A). On the procedure: These Pseudomonas clinical isolates, as well as a variety of Pseudomonas ATCC strains, were tested for their susceptibility to the histatin derivative having the sequence Ala-Lys-Arg-His-His-Gly-Tyr-Lys-Arg-Lys-Phe- His-NH2 (SEQ ID NO: 1) (P-113). P-113 was used at a concentration of 100 μg/mL to […]. P. aeruginosa ATCC 27853 was used as a control in each assay. The ATCC strains were tested using Direct Antibacterial Assay SOP 98-020; the clinical isolates were tested using either the Direct Antibacterial Assay (D) or Alamar Blue Antimicrobial/Antifungal Assay SOP 96-018 (A).
The Direct Assay is an MIC test in microtiter plate format in which cells resuspended in LM broth are exposed to two-fold dilutions of P-113, and the cell density is determined directly after an overnight incubation. Cells are inoculated onto a blood agar plate and incubated for 18 hours at 37° C., and then stored at room temperature for use later in the day. Cells are resuspended and diluted based on the optical density to a final concentration of 5×10^5 per ml in LM broth containing two-fold dilutions of antibiotics. After 16-18 hours at 37° C., the optical density is measured with a Molecular Devices Thermonix plate reader. A reading of ˜0.3 over background is observed for cells grown in the absence of drug. Readings<0.01 correlated with no visible growth. […]

Values joined by “and” are separate entries in the source; they are usually repeats but may differ in a detail not shown here. Equal values may be shown once. Read-outs that look alike come from different tables or passages of the source. Ends that are not written are not given here.

Turning to `C[C@H](NC(=O)[C@H](Cc1c[nH]cn1)NC(=O)[C@H](CO)NC(=O)[C@@H](N)CC(=O)O)C(=O)N[C@@H](CCCCN)C(=O)N[C@@H](CCCNC(=N)N)C(=O)N[C@@H](Cc1c[nH]cn1)C(=O)N[C@@H](Cc1c[nH]cn1)C(=O)NCC(=O)N[C@@H](Cc1ccc(O)cc1)C(=O)N[C@@H](CCCCN)C(=O)N[C@@H](CCCNC(=N)N)C(=O)N[C@@H](CCCCN)C(=O)N[C@@H](Cc1ccccc1)C(=O)N[C@@H](Cc1c[nH]cn1)C(=O)N[C@@H](CCC(=O)O)C(=O)N[C@@H](CCCCN)C(=O)N[C@@H](Cc1c[nH]cn1)C(=O)N[C@@H](Cc1c[nH]cn1)C(=O)N[C@@H](CO)C(=O)N[C@@H](Cc1c[nH]cn1)C(=O)N[C@@H](CCCNC(=N)N)C(=O)NCC(=O)N[C@@H](Cc1ccc(O)cc1)C(=O)O` [His-5, histatin 5, reference compound], the cfu/plate in the assay on P. aeruginosa [1] (0.5 μM, dilution A) is 150 cfu/plate and 164 cfu/plate; in the assay on P. aeruginosa [1] (0.5 μM, dilution B), 90 cfu/plate and 96 cfu/plate; with P. aeruginosa [1] (5 μM, dilution A), 143 cfu/plate and 159 cfu/plate; in the assay on P. aeruginosa [1] (5 μM, dilution B) it was 73 cfu/plate and 68 cfu/plate; in the assay on P. aeruginosa [1] (200 μM, dilution A), 0 cfu/plate; with P. aeruginosa [1] (200 μM, dilution B) it was 0 cfu/plate. Moreover, the “efficacy in killing P. aeruginosa” value in the assay on P. aeruginosa [1] is listed as “effective in killing these bacteria”.

As for “AKRHHGYKRKFH-NH2 [P-113, Ala-Lys-Arg-His-His-Gly-Tyr-Lys-Arg-Lys-Phe- His-NH2]”, the “effectiveness against the Pseudomonas strains tested” value with P. aeruginosa [2] is given as “effective against nearly all of the Pseudomonas strains tested”. For the same molecule, the cfu/plate in the assay on P. aeruginosa [1] (5 μM as printed, second P-113 5 μM line (after His-5 0.5 μM), dilution A) is 133 cfu/plate and 170 cfu/plate; in the assay with P. aeruginosa [1] (5 μM as printed, second P-113 5 μM line (after His-5 0.5 μM), dilution B), 88 cfu/plate and 85 cfu/plate; with P. aeruginosa [1] (50 μM, dilution A) it was 0 cfu/plate; in the assay with P. aeruginosa [1] (200 μM, dilution A) it was 0 cfu/plate; with P. aeruginosa [1] (200 μM, dilution B), 0 cfu/plate. Besides, in the assay on P. aeruginosa [1], the “activity against P. aeruginosa” value is reported as “very active”. Also, in the assay on P. aeruginosa [1], the “efficacy in killing P. aeruginosa” value is on record as “greater efficacy than His-5”.

Regarding “Ala-Gln-Arg-His-His- Gly-Tyr-Lys-Arg-Gln-Phe-His-NH2 (AQRHHGYKRQFH-NH2) [P-113 Q2.10]”, the “activity against P. aeruginosa” value in the assay with P. aeruginosa [1] is given as “very active”.

With “Ala-Gln-Gln-His-His-Gly-Tyr- Lys-Gln-Gln-Phe-His-NH2 (AQQHHGYKQQFH-NH2) [P-113 Q2.3.9.10]”, the “activity against P. aeruginosa” value in the assay on P. aeruginosa [1] was “inactive”.

On to “Ala-Lys-Arg- Tyr-Tyr-Gly-Tyr-Lys-Arg-Lys-Phe-Tyr-NH2 (AKRYYGYKRKFY-NH2) [P-113 Y4.5.12]”, for which the “activity against P. aeruginosa” value in the assay on P. aeruginosa [1] was “very active”.

In the case of “Ala-Lys-Arg-Leu- Leu-Gly-Tyr-Lys-Arg-Lys-Phe-Leu-NH2 (AKRLLGYKRKFL-NH2) [P-113 L4.5.12]”, in the assay with P. aeruginosa [1], the “activity against P. aeruginosa” value is listed as “also active”.

In the case of “Ala-Lys-Gln-His-His-Gly- Tyr-Lys-Gln-Lys-Phe-His-NH2 (AKQHHGYKQKFH-NH2) [P-113 Q3.9]”, in the assay with P. aeruginosa [1], the “activity against P. aeruginosa” value was “also active”.
